In US8410118B2, “Inhibitors of fatty acid uptake and methods of use” (NUtech Ventures, priority 2009, dated 2013):
Like-named read-outs stand apart in the source and are kept apart here.

Assays:
[1] = tested on: Caco-2 cells; assay: C1-BODIPY-C12 fatty acid uptake (transport) inhibition in Caco-2 cells; format: cell-based, human; settings: for % Transport Standard Assay: compound at f.c. 40 μM, Caco-2 cells, control = 100, mean ± SD of 3-5 experiments
From the text: The Caco-2 cell line is derived from a human adenocarcinoma and is able to undergo differentiation into polarized epithelial cells that show a brush border phenotype and form well-developed and functional tight junction complexes [Fogh et al., J. Natl. Cancer Inst., 1977, 59:221-6; Grasset et al., Am. J. Physiol., 1984, 247:C260-7]. This cell line is used as an in vitro model to predict human intestinal absorption and secretion [Hilgers et al., Pharm. Res., 1990, 7:902-10]. Caco-2 cells were maintained in Earl's minimal essential medium (MEM) with 20% FBS in a 95% air 5% CO2 atmosphere at 37° C., as previously described [Sandoval et al., Arch. Biochem. Biophys., 2008, 477:363-71]. For growth and differentiation, the BD Biosciences Intestinal Epithelium Differentiation Media Pack was used. Cells were plated in basal seeding medium at a density of 2.5×10^5 cells/cm^2 on a collagen-coated black-clear 96-well plate (BD Biosciences). After 72 h in culture, the basal seeding medium was removed and Entero-STIM medium was added to each well. Both media contained mito-serum extender. After another 24 h, cells were serum-starved for one hour in MEM without phenol red prior to performing the C1-BODIPY-C12 uptake assay. HepG2 cells (ATCC, HB-8065) were cultured according to the ATCC protocol. The cells were seeded in 96-well collagen coated plates at a seeding density of 2.5×10^5 cells/cm^2. […] For differentiation into adipocytes, 3T3-L1 cells were treated with methylisobutylxanthine (0.5 mM), dexamethasone (1.0 μM), and insulin (1.75 μM) in DMEM and 10% FBS for 48 hours as described by Student et al. [Student et al., J. Biol. Chem., 1980, 255:4745-50]. After 48 hour incubation with differentiation medium, cells were treated with DMEM and 10% FBS supplemented with insulin (1.75 μM) for 48 hours. Cells were subsequently maintained in DMEM and 10% FBS for an additional 3-6 days until fully differentiated. The number of cells per well in screening trials were determined using the FluoReporter® Blue Fluorometric DNA Quantitation Kit from Invitrogen.
Caco-2 cells were plated in basal seeding medium at a density of 2.5×10^5 cells/cm^2 in collagen-coated 96-well plates, and differentiated as detailed above. HepG2 cells were cultured in EMEM. Differentiated 3T3-L1 adipocytes were maintained in modified DMEM and 10% FBS. After another 24 h, cells were serum-starved for 1 h in MEM without phenol red prior to performing the C1-BODIPY-C12 transport assay [Sandoval et al., Arch. Biochem. Biophys., 2008, 477:363-71; Arias-Barrau et al., Methods Mol. Biol., 2009, 580:233-49]. In a standard reaction, serum-free MEM was removed from the wells and 50 μL of the test compound in MEM (MEM alone for controls) were added to each well and incubation was continued for 1 h. Then 50 μL of C1-BODIPY-C12 mixture (final concentrations 5 μM C1-BODIPY-C12; 5 μM FAF BSA; 1.97 mM trypan blue) was added to each well, and uptake was allowed to take place for 15 min. Cell-associated fluorescence was measured as detailed above. […] Ligand competition curves were fit by nonlinear least-squares regression using one-site competition and dose-response models and Prism software (GraphPad software, Inc., San Diego, Calif.) in order to determine the compound concentration that reduced C1-BODIPY-C12 fluorescence readout by 50% (IC50). Ki values were calculated from the IC50 using the equation of Cheng and Prusoff as detailed in Li et al. [J. Lipid Res., 2008, 49:230-44] and KT values published by Sandoval et al. [Sandoval et al., Arch. Biochem. Biophys., 2008, 477:363-71].

[2] = tested on: long chain acyl-CoA synthetase (Acsl); assay: Oleoyl-CoA synthetase (Acsl) activity in Caco-2 cell extracts after compound treatment; format: biochemical, human; settings: Caco-2 cells pretreated 1 h; for oleoyl CoA synthetase activity: activity in total cell extracts
Description: Caco-2 cells were grown and differentiated in 60 mm collagen coated dishes (at a seeding density 2.5×10^5 cells/cm^2). Following growth and differentiation as detailed above, cells were serum starved for 1 h in MEM and then were treated for 1 h with selected compounds at specified final concentrations. The media was subsequently removed by aspiration and cells washed once with 5 mL PBS, trypsinized using standard procedures and collected by centrifugation. The cell pellet was resuspended in 1 mL STE lysis buffer (10 mM Tris-HCl (pH 8.0); 0.1M NaCl; 1 mM EDTA) and sonicated on ice for 2 min using 3 sec on/off pulses. […] In parallel experiments, untreated cells were used to prepare the cell extract for Acsl activity measurements where the compound of interest was added directly to the reaction mixture.
Acyl-CoA formed during the reaction remained in the aqueous fraction and was quantified by scintillation counting. Data were expressed as nmol oleoyl CoA formed/min/mg protein.

[3] = tested on: Caco-2 cells; assay: Glucose analogue 2-NBDG uptake into Caco-2 cells; format: cell-based, human; settings: differentiated Caco-2 cells
Description: To assess the impact of selected compounds upon glucose transport, Caco-2 cells were seeded and differentiated in 96-well collagen coated plates as detailed above and incubated for 1 h with compound diluted in PBS. […] Cells were incubated 30 min at 37° C., 5% CO2 to allow uptake. The medium was removed by aspiration and cells were rinsed once with 100 μL, of PBS.

[4] = tested on: 3T3-L1 adipocytes; assay: C1-BODIPY-C12 fatty acid uptake inhibition in 3T3-L1 adipocytes; format: cell-based
Description: (§1) This cell line is used as an in vitro model to predict human intestinal absorption and secretion [Hilgers et al., Pharm. […] For growth and differentiation, the BD Biosciences Intestinal Epithelium Differentiation Media Pack was used. Cells were plated in basal seeding medium at a density of 2.5×10^5 cells/cm^2 on a collagen-coated black-clear 96-well plate (BD Biosciences). After 72 h in culture, the basal seeding medium was removed and Entero-STIM medium was added to each well. Both media contained mito-serum extender. After another 24 h, cells were serum-starved for one hour in MEM without phenol red prior to performing the C1-BODIPY-C12 uptake assay. […] The cells were seeded in 96-well collagen coated plates at a seeding density of 2.5×10^5 cells/cm^2. […] Cells were subsequently maintained in DMEM and 10% FBS for an additional 3-6 days until fully differentiated. The number of cells per well in screening trials were determined using the FluoReporter® Blue Fluorometric DNA Quantitation Kit from Invitrogen.
(§2) Caco-2 cells were plated in basal seeding medium at a density of 2.5×10^5 cells/cm^2 in collagen-coated 96-well plates, and differentiated as detailed above. HepG2 cells were cultured in EMEM. Differentiated 3T3-L1 adipocytes were maintained in modified DMEM and 10% FBS. After another 24 h, cells were serum-starved for 1 h in MEM without phenol red prior to performing the C1-BODIPY-C12 transport assay [Sandoval et al., Arch. […] In a standard reaction, serum-free MEM was removed from the wells and 50 μL of the test compound in MEM (MEM alone for controls) were added to each well and incubation was continued for 1 h. […] Cell-associated fluorescence was measured as detailed above.

[5] = tested on: HepG2 cells; assay: C1-BODIPY-C12 fatty acid uptake inhibition in HepG2 cells; format: cell-based
Description: as §1, §2

[6] = tested on: Caco-2 cells; assay: MTT cytotoxicity assay in Caco-2 cells
Description: The MTT [3-(4,5-dimethylthiazol-2-yl)-2,5-diphenyltetrazolium bromide] assay was used to determine if compounds of interest were cytotoxic to Caco-2 cells [Mosmann, J. Immunol. […] Cells were cultured and differentiated as detailed above in collagen-coated 96-well plates. Cells were incubated at 37° C., 5% CO2 for at least one hour and up to 72 h in MEM containing the appropriate dilution of compound. Following this incubation period, the media with compound was removed and 110 μL, of MTT reagent (prepared in MEM (final concentration 0.45 mg/mL MTT)) was added. After a 3 h incubation period, the reaction was terminated by the addition of 150 μL, stop buffer (0.01N HCl in 10% SDS). The plates were incubated for 1 h at 37° C. to facilitate solubilization of formazan crystals; color development was read at A570.

[7] = Table 3, structurally related compounds in Caco-2 cells, read-out: IC50
[8] = Table 4, derived from laboratory data, read-out: IC50 (μM ± SE)
[9] = C1-BODIPY-C12 uptake, average of 3 experiments ± SEM, read-out: Caco-2 IC50
[10] = Homo sapiens, Caco-2, Table 4, derived from laboratory data, read-out: IC50 (μM ± SE)
[11] = Homo sapiens, Table 3, structurally related compounds in Caco-2 cells, read-out: IC50

Row | Structure (SMILES) | IC50 [1, 7] [µM] | IC50 [1, 8] [µM] | glucose (2-NBDG) transport ([3]; 20 μM) | % Transport Standard Assay [1] [%] | cellular toxicity (MTT, mitochondrial function) ([6]; 50 μM for 24 h) | oleoyl CoA synthetase activity [2] | IC50 [1, 10] [µM] | also measured
1 | O=C1Nc2ccccc2C12CN=C(c1ccccc1O)S2 (stereo not shown) [IV-2] | 11.9 ± 1.43 | 11.9 ± 1.43 |  |  |  |  |  | 
2 | COc1cc(/C=C2/SC(=S)N(c3cccc(Cl)c3)C2=O)cc(Br)c1O [Compound I-1, (5E)-5-[(3-bromo-4-hydroxy-5-methoxyphenyl)methylene]-3-(3-chloropheny1)-2-thioxothiazolidin-4-one] | 3.99 ± 0.32 | 3.99 ± 0.32 | not affected | 46 ± 3 |  |  |  | inhibition of oleoyl CoA synthetase activity ([2]; 50 μM (10 times the IC50)): about 50%; IC50 [1, 9]: 3.99 ± 0.32 µM; IC50 [4]: 231 ± 33.5 µM; IC50 [5]: 7.55 ± 1.23 µM
3 | O=C1C=CC=CC1=C1NNC2(S1)C(=O)Nc1ccc(Br)cc12 (stereo not shown) [IV-1, 5′-bromo-5-(6-oxocyclohexa-2,4-dien-1-ylidene)spiro[1,3,4-thiadiazolidine-2,3′-1H-indole]-2′-one] |  |  | not affected | 27 ± 1 | not toxic | not reduced | 6.66 ± 0.64 | 
4 | Oc1c(C2=NCCNC(C(F)(F)F)=C2)ccc2ccccc12 [III-1, 2-[7-(trifluoromethyl)-2,3-dihydro-1H-1,4-diazepin-5-yl]naphthalen-1-ol] |  |  | not affected | 35 ± 1 | not toxic | not reduced | 4.93 ± 0.4 | IC50 ([4]; Mus musculus, 3T3-L1): 52.5 ± 6.7 µM; IC50 ([5]; Homo sapiens, HepG2): 6.72 ± 0.81 µM
5 | OCC(CCc1c[nH]c2ccccc12)c1c[nH]c2ccccc12 (stereo not shown) [Compound V-1, 2,4-bis(1H-indol-3-yl)butan-1-ol] |  |  |  | 52 ± 2 |  | not reduced |  | cellular toxicity (MTT, mitochondrial function) ([6]; 100 μM for 24 h): not toxic; glucose (2-NBDG) transport ([3]; 50 μM): reduced 2-NBDG transport slightly; IC50 ([1]; Homo sapiens, Caco-2, C1-BODIPY-C12 uptake, average of 3 experiments ± SEM, read-out: Caco-2 IC50): 29.2 ± 3.64 µM; IC50 ([4]; Mus musculus, 3T3-L1): 143 ± 22.4 µM; IC50 ([5]; Homo sapiens, HepG2): 84.1 ± 14.1 µM
6 | COc1cc(/C=C2/SC(=S)N(c3cccc(F)c3)C2=O)cc(Br)c1O [Compound I-4] |  |  |  |  |  |  |  | IC50 [1, 11]: 4.7 ± 0.8 µM
7 | O=c1cc(-c2ccc([N+](=O)[O-])cc2)[nH]c2c(-c3ccc(Cl)cc3)c(Cc3ccccc3)nn12 [II-1, 2-benzy1-3-(4-chloropheny1)-5-(4-nitropheny1)-1H-pyrazolo[5,1-b]pyrimidin-7-one] | 6.34 ± 0.93 | 6.34 ± 0.93 | not affected | 54 ± 1 | not toxic | not reduced |  | IC50 [1, 9]: 6.34 ± 0.93 µM; IC50 [4]: 901 ± 205 µM; IC50 [5]: 10.2 ± 1.26 µM
8 | O=C1Nc2ccc(Br)cc2C12CN=C(c1ccccc1)S2 (stereo not shown) [IV-3] | 4.84 ± 0.69 | 4.84 ± 0.69 |  |  |  |  |  | 
9 | COc1cc(/C=C2/SC(=S)N(c3cccc(Cl)c3)C2=O)ccc1O [Compound I-2] |  |  |  |  |  |  | 121 ± 25.4 | IC50 [1, 11]: 121 ± 25 µM
